Test results: US20260265195A1, “SARM1 MODULATORS, PREPARATIONS, AND USES THEREOF” (SIRONAX LTD, priority 2022, published 2026)

Molecular target: T1, SARM1 (50-724) (Homo sapiens, UniProt Q6SZW1)
T1 construct: Purified SARM1 (50-724) with a final concentration of 2 nM
T1 sequence (Q6SZW1 50-724): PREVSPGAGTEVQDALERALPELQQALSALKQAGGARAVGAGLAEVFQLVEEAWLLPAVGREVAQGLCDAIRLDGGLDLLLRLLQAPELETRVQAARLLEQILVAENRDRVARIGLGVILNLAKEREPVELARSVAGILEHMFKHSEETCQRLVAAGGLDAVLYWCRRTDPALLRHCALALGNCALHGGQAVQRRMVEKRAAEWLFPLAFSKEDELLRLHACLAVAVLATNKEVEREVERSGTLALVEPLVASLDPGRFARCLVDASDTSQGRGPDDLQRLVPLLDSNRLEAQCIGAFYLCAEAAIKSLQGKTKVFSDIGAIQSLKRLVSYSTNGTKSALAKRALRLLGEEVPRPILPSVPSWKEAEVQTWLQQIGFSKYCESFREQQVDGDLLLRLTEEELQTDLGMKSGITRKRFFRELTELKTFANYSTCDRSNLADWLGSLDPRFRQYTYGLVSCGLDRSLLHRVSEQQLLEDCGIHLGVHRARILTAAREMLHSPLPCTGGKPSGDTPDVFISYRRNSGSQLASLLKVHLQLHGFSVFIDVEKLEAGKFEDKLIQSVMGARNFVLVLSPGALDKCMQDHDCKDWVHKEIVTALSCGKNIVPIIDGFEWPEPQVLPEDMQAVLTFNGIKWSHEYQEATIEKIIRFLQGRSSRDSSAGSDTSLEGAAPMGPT
Test: SARM1 (50-724) enzymatic assay (NMN-activated NAD+ hydrolysis, LC-MS/MS readout)
Type: biochemical
Conditions: purified SARM1 (50-724) 2 nM, 200 μM NMN activator, 100 μM NAD+ substrate, 1 h at room temperature, read-out: IC50 (SARM1 inhibitory activity)
Description: Example II. SARM1 (50-724) Enzymatic Assay
An enzymatic assay was performed in a 384-well plate using Dulbecco's phosphate-buffered saline (PBS) as the reaction buffer. Purified SARM1 (50-724) with a final concentration of 2 nM was pre-incubated with a test compound at 1% DMSO final assay concentration for 15 min at room temperature. The reaction was initiated by adding a mixture of 200 μM nicotinamide mononucleotide (NMN) as activator and 100 μM NAD^+ as substrate. After 1 h of incubation at room temperature, the reaction was terminated with 10 times volume of 70% acetonitrile, then centrifuged at 3800 rpm for 10 min. The samples were analyzed using LC-MS/MS after diluted to a proper concentration by 10 mM ammonium acetate (pH 9.75).
ND means “not determined.”

SMILES | IC50 [nM]
CC1(C)OCC(CN(C(=O)c2nc3cc(C(F)(F)F)ccc3[nH]2)c2cccc(Cl)c2Cl)O1 (racemic) [Compound 173, N-(2,3-dichlorophenyl)-N-((2,2-dimethyl-1,3-dioxolan-4-yl)methyl)-5-(trifluoromethyl)-1H-benzo[d]imidazole-2-carboxamide] | ≤ 100
O=C(c1nc2cc(C(F)(F)F)ccc2[nH]1)N(c1cn[nH]c1)c1cccc(Cl)c1Cl [Compound 127, N-(2,3-dichlorophenyl)-N-(1H-pyrazol-4-yl)-5-(trifluoromethyl)-1H-benzo[d]imidazole-2-carboxamide] | ≤ 100
O=C(c1nc2cc(Cl)cc(F)c2[nH]1)N(CC(F)(F)CO)c1cccc(F)c1Cl [Compound 232, 5-chloro-N-(2-chloro-3-fluorophenyl)-N-(2,2-difluoro-3-hydroxypropyl)-7-fluoro-1H-benzo[d]imidazole-2-carboxamide] | ≤ 100
Cc1ccc2[nH]c(C(=O)N(CCO)c3cccc(Cl)c3Cl)nc2c1 [Compound 50, N-(2,3-dichlorophenyl)-N-(2-hydroxyethyl)-5-methyl-1H-benzo[d]imidazole-2-carboxamide] | ≥ 1000
Cc1ccc2[nH]c(C(=O)N(CCN(C)C)C3CCCC3)nc2c1 [Compound 64, N-cyclopentyl-N-(2-(dimethylamino)ethyl)-5-methyl-1H-benzo[d]imidazole-2-carboxamide] | ≥ 1000
CS(=O)(=O)CCCN(C(=O)c1nc2cc(C(F)(F)F)ccc2[nH]1)c1cccc(F)c1Br [Compound 227, N-(2-bromo-3-fluorophenyl)-N-(3-(methylsulfonyl)propyl)-5-(trifluoromethyl)-1H-benzo[d]imidazole-2-carboxamide] | ≤ 100
CN(C(=O)c1[nH]ncc1CO)C1CCCC1 [Compound 33, N-cyclopentyl-4-(hydroxymethyl)-N-methyl-1H-pyrazole-5-carboxamide] | ≥ 1000
O=C(c1nc2cc(C(F)(F)F)ccc2[nH]1)N(CC1CC(O)C1)c1cccc(F)c1Cl (centres unmarked) [Compound 194, N-(2-chloro-3-fluorophenyl)-N-((3-hydroxycyclobutyl)methyl)-5-(trifluoromethyl)-1H-benzo[d]imidazole-2-carboxamide] | ≤ 100
Cc1cccc(N(CCO)C(=O)c2nc3cc(C(F)(F)F)ccc3[nH]2)c1F [Compound 172, N-(2-fluoro-3-methylphenyl)-N-(2-hydroxyethyl)-5-(trifluoromethyl)-1H-benzo[d]imidazole-2-carboxamide] | 501 to 1000
Cc1csc(-c2ccc3[nH]c(C(=O)N(CCO)c4cccc(Cl)c4Cl)nc3c2)n1 [Compound 153] | 101 to 500
Cc1c(Cl)cncc1N(CC(F)(F)CO)C(=O)c1nc2cc(C(F)(F)F)ccc2[nH]1 [Compound 133, N-(5-chloro-4-methylpyridin-3-yl)-N-(2,2-difluoro-3-hydroxypropyl)-5-(trifluoromethyl)-1H-benzo[d]imidazole-2-carboxamide] | ≤ 100
Cc1ccc(Cl)c(N(C)C(=O)c2nc3cc(C(F)(F)F)ccc3[nH]2)c1Cl [Compound 152, N-(2,6-dichloro-3-methylphenyl)-N-methyl-5-(trifluoromethyl)-1H-benzo[d]imidazole-2-carboxamide] | ≤ 100
Cc1cccc(N(C)C(=O)c2[nH]c3ccc(C)cc3c2CO)c1 [Compound 43, 3-(hydroxymethyl)-N,5-dimethyl-N-(m-tolyl)-1H-indole-2-carboxamidc] | ≥ 1000
O=C(c1nc2cc(C3CC3)ccc2[nH]1)N(CC(F)(F)CO)c1cccc(F)c1Cl [Compound 210] | ≤ 100
CC1CCC(C)C1N(CCO)C(=O)c1nc2cc(C(F)(F)F)ccc2[nH]1 (centres unmarked) [Compound 102, N-(2,5-dimethylcyclopentyl)-N-(2-hydroxyethyl)-5-(trifluoromethyl)-1H-benzo[d]imidazole-2-carboxamide] | ≤ 100
Cc1ccc2c(c1)c(CO)c(C(=O)N(C)C1C(C)CCC1C)n2C (centres unmarked) [Compound 18, N-(2,5-dimethylcyclopentyl)-3-(hydroxymethyl)-N,1,5-trimethyl-1H-indole-2-carboxamide] | ≥ 1000

SMILES | IC50 [nM]
Cc1cc(-c2ccc3[nH]c(C(=O)N(CCO)c4cccc(Cl)c4Cl)nc3c2)sn1 [Compound 144] | 101 to 500
Cc1c(Cl)cncc1N(CCO)C(=O)c1nc2cc(C(F)(F)F)ccc2[nH]1 [Compound 148, N-(5-chloro-4-methylpyridin-3-yl)-N-(2-hydroxyethyl)-5-(trifluoromethyl)-1H-benzo[d]imidazole-2-carboxamide] | ≤ 100
Cc1ccc2[nH]c(C(=O)N(CCO)c3cccc(Cl)c3Cl)c(C#N)c2c1 [Compound 71, 3-cyano-N-(2,3-dichlorophenyl)-N-(2-hydroxyethyl)-5-methyl-1H-indole-2-carboxamide] | ≤ 100
COc1ccc2c(CO)c(C(=O)N(C)C3CCCC3)[nH]c2c1 [Compound 29, N-cyclopentyl-3-(hydroxymethyl)-6-methoxy-N-methyl-1H-indole-2-carboxamide] | ≥ 1000
Cc1ccc2[nH]c(C(=O)N(C)C3CCOCC3)c(CNc3ccccn3)c2c1 [Compound 90, N,5-dimethyl-3-((pyridin-2-ylamino)methyl)-N-(tetrahydro-2H-pyran-4-yl)-1H-indole-2-carboxamide] | ≥ 1000
CC(O)CN(C(=O)c1nc2cc(C(F)(F)F)ccc2[nH]1)c1cccc(Cl)c1Cl (centres unmarked) [Compound 170] | ≤ 100
Cc1ccc2[nH]c(C(=O)N(C)c3cccc(Cl)c3Cl)c(CNc3nc(C(N)=O)c(C(C)C)s3)c2c1 [Compound 74, 2-(((2-((2,3-dichlorophenyl)(methyl)carbamoyl)-5-methyl-1H-indol-3-yl)methyl)amino)-5-isopropylthiazole-4-carboxamide] | ≤ 100
CC(C)(CO)c1ccc2[nH]c(C(=O)N(CC3(F)COC3)c3cccc(Cl)c3Cl)nc2c1 [Compound 205] | ≤ 100
O=C(c1nc2cc(C(F)(F)F)cc(F)c2[nH]1)N(CCO)c1cccc(Cl)c1Cl [Compound 206] | ≤ 100
CN(C(=O)c1nc2c(C#N)cccc2[nH]1)C1CCCC1 [Compound 95, 4-cyano-N-cyclopentyl-N-methyl-1H-benzo[d]imidazole-2-carboxamide] | ≥ 1000
O=C(c1nc2cc(C(F)(F)F)ccc2[nH]1)N(c1cccc(F)c1Cl)C1CCS(=O)(=O)C1 (racemic) [Compound 228, N-(2-chloro-3-fluorophenyl)-N-(1,1-dioxidotetrahydrothiophen-3-yl)-5-(trifluoromethyl)-1H-benzo[d]imidazole-2-carboxamide] | ≤ 100
Cc1ccc2[nH]c(C(=O)N(C)C3CCCC3)c(C(N)=O)c2c1 [Compound 96, N2-cyclopentyl-N2,5-dimethyl-1H-indole-2,3-dicarboxamide] | ≤ 100
Cc1ccc2[nH]c(C(=O)N(C)c3cccc(Cl)c3Cl)c(CNc3nccs3)c2c1 [Compound 79, N-(2,3-dichlorophenyl)-N,5-dimethyl-3-((thiazol-2-ylamino)methyl)-1H-indole-2-carboxamide] | ≤ 100
Cc1ccc2[nH]c(C(=O)N(C)c3cccc(Cl)c3Cl)nc2c1 [Compound 123, N-(2,3-dichlorophenyl)-N,5-dimethyl-1H-benzimidazole-2-carboxamide] | ≤ 100
C=C(c1cn[nH]c1)c1ccc2[nH]c(C(=O)N(CCO)c3cccc(Cl)c3Cl)nc2c1 [Compound 187] | ≤ 100
O=C(c1nc2cc(C(F)(F)F)c(Cl)cc2[nH]1)N(CCO)c1cccc(Cl)c1Cl [Compound 163] | 101 to 500
